Several values for one entry are separate records, joined by “and”; a condition that tells them apart may be missing. Identical values can stand only once. Like-named read-outs stand apart in the source and are kept apart here. Starred links: 1 amine or outer side, 2 acyl side, 3 side chain; linkers in the order of their positions; H or OH if unused. Non-standard residues stand in square brackets, D forms with d. Residues, ends and D or L forms follow the SMILES beside them. *: point of attachment. X1 = CCCCC[C@H](O[*:1])C(=O)[*:2]; Ahp(2) = CCCCC[C@H](N)C(=O)O; dNMeA = CN[C@H](C)C(=O)O; Boc = CC(C)(C)OC(=O)*; OBn = c1ccc(CO*)cc1
Columns and labels:
PAMPA [1] = settings: UV detection, initial concentration 500 uM
[2] = calculated using Supplement Equation 1, UV detection
[3] = PAMPA
[4] = PAMPA; remark: listed apart in the source
PAMPA [5] = settings: UV detection
[6] = UV detection
[7] = initial concentration 500 uM, UV detection

CCCCC[C@H](NC(=O)[C@@H](C)N(C)C(=O)[C@H](CCCCC)OC(=O)[C@@H](C)N(C)C(=O)[C@H](CCCCC)NC(=O)[C@@H](C)N(C)C(=O)[C@H](CCCCC)OC(=O)[C@@H](C)N(C)C(=O)OC(C)(C)C)C(=O)OCc1ccccc1 [Compound L2.3] (Boc-[dNMeA][X1][dNMeA][Ahp(2)][dNMeA][X1][dNMeA][Ahp(2)]-OBn)
Acceptor Concentration (PAMPA [1]; Acceptor Concentration (uM) / [row 1]): 89.6 µM | Acceptor Concentration (PAMPA [1]; Acceptor Concentration (uM) / [row 2]): 71.9 µM | Acceptor Concentration (PAMPA [1]; Acceptor Concentration (uM) / [row 3]): 75.1 µM | Acceptor Concentration (PAMPA [1]; Acceptor Concentration (uM) / [row 4]): 81.3 µM | Acceptor Concentration (PAMPA [1]; Acceptor Concentration (uM) / [row 5]): 83.9 µM | Acceptor Concentration (PAMPA [1]; Acceptor Concentration (uM) / [row 6]): 71.2 µM | Acceptor Concentration (PAMPA [1]; Acceptor Concentration (uM) / [row 7]): 69.7 µM | Acceptor Concentration (PAMPA [1]; Acceptor Concentration (uM) / [row 8]): 66.2 µM | Acceptor Concentration (PAMPA [1]; Acceptor Concentration (uM) / [row 9]): 69.9 µM | Acceptor Concentration (PAMPA [1]; Acceptor Concentration (uM) / [row 10]): 69 µM | %T ([2]; Well 1 / %T, Well 1): 0.55% and 0.49% | %T ([2]; Well 2 / %T, Well 2): 0.56% and 0.52% | %T ([2]; Well 3 / %T, Well 3): 0.52% and 0.55% | %T ([2]; Well 4 / %T, Well 4): 0.5% and 0.53% | %T ([2]; Well 5 / %T, Well 5): 0.54% and 0.53% | LogPapp [3]: -5.48 ± 0.04 | Δ % diffusion [3]: ↑10% | Papp [4]: 3.32 ± 0.31 ×10⁻⁶ cm/s | Papp (PAMPA [5]; Papp (x 10^-6 cm/s) / [row 1]): 3.76 ×10⁻⁶ cm/s | Papp (PAMPA [5]; Papp (x 10^-6 cm/s) / [row 2]): 3.12 ×10⁻⁶ cm/s | Papp (PAMPA [5]; Papp (x 10^-6 cm/s) / [row 3]): 3.36 ×10⁻⁶ cm/s | Papp (PAMPA [5]; Papp (x 10^-6 cm/s) / [row 4]): 3.52 ×10⁻⁶ cm/s | Papp (PAMPA [5]; Papp (x 10^-6 cm/s) / [row 5]): 3.88 ×10⁻⁶ cm/s | Papp (PAMPA [5]; Papp (x 10^-6 cm/s) / [row 6]): 3.19 ×10⁻⁶ cm/s | Papp (PAMPA [5]; Papp (x 10^-6 cm/s) / [row 7]): 3.05 ×10⁻⁶ cm/s | Papp (PAMPA [5]; Papp (x 10^-6 cm/s) / [row 8]): 2.93 ×10⁻⁶ cm/s | Papp (PAMPA [5]; Papp (x 10^-6 cm/s) / [row 9]): 3.14 ×10⁻⁶ cm/s | Papp (PAMPA [5]; Papp (x 10^-6 cm/s) / [row 10]): 3.2 ×10⁻⁶ cm/s | % recovery ([6]; Well 1 / %R, Well 1): 96% and 88% | % recovery ([6]; Well 2 / %R, Well 2): 91% and 90% | % recovery ([6]; Well 4 / %R, Well 4): 92% and 88% | % recovery ([6]; Well 5 / %R, Well 5): 87% and 85% | donor concentration after incubation ([7]; Well 1 / [donor], Well 1): 388 µM and 369 µM | donor concentration after incubation ([7]; Well 2 / [donor], Well 2): 382 µM and 380 µM | donor concentration after incubation ([7]; Well 3 / [donor], Well 3): 369 µM and 377 µM | donor concentration after incubation ([7]; Well 4 / [donor], Well 4): 380 µM and 370 µM | donor concentration after incubation ([7]; Well 5 / [donor], Well 5): 353 µM and 358 µM

Source: article PMC11995216, “End-to-End Backbone Cyclization Enhances Passive Permeability of bRo5 Oligomeric Depsipeptides with Nonlinear Size Dependence” (ACS Medicinal Chemistry Letters, 2025)
